Laboratory results: patent publication US10696971B2, “MrgprX2/MrgprB2 expressing cell based assay to detect pseudo-allergic drug reactions and to identify blockers to prevent the adverse reactions” (The Johns Hopkins University, priority 2014, dated 2020)
“Also recorded” adds a separate entry of the source.

Experiments:
[1] = system: mouse peritoneal mast cells; assay: Peritoneal mast cell Fluo-4 calcium imaging, WT vs MrgprB2^MUT; assay type: cell-based; settings: for activation / responsiveness of peritoneal mast cells, WT vs MrgprB2^MUT: Fluo-4 imaging, concentrations per FIG. 2A, 2E, 3A, 4C, 4E, 11 legends
Method: Adult male and female mice 2-5 months of age were sacrificed through CO2 inhalation. A total of 12 mls of ice cold mast cell dissociation media (MCDM; HBSS with 3% fetal bovine serum and 10 mM HEPES, pH 7.2) were used to make two sequential peritoneal lavages, which were combined and cells were spun down at 200 g. The pellet from each mouse was resuspended in 2 mls MCDM, layered over 4 mls of an isotonic 70% Percoll suspension (2.8 mls Percoll, 320 μls 10×HBSS, 40 μl 1 M HEPES, 830 μl MCDM), and spun down for 20 minutes, 500 g, 4° C. Mast cells were recovered in the pellet. Purity was >95%, as assayed by avidin staining and by morphology. Mast cells were resuspended at 5×10^5-1×10^6 cells/ml in DMEM with 10% fetal bovine serum and 25 ng/ml recombinant mouse stem cell factor (Sigma), and plated onto glass cover slips coated with 30 μg/ml fibronectin (Sigma). For counting, instead of plating, suspended mast cells were diluted 1/10 and affixed to slides by spinning at 1000 rpm for 5 minutes at 4° C. on a CytoSpin (Thermo Scientific).
For imaging, after two hours of incubation at 37° C., 5% CO2, mast cells were loaded with Fluo-4 along with 0.02% Pluronic F-127 for 30 minutes at room temperature, washed 3 times in CIB and used immediately for imaging. Cells were used within two hours of loading. Cells were identified as responding if the [Ca^2+]i rose by at least 50% for at least 10 seconds, which clearly distinguishes a ligand-induced response from random flickering events. Average traces were calculated by taking the average response from each cell in a mouse, and averaging those.

MrgprB2 = target: T1, MrgprB2 (Mus musculus, UniProt Q3KNA1); assay: Calcium imaging / EC50 determination in HEK293 cells expressing MrgprB2 (MrgprB2-HEK); assay type: cell-based; settings: HEK293 cells heterologously expressing MrgprB2
T1 construct: expressed in transfected cells
T1 sequence (Q3KNA1 1-338): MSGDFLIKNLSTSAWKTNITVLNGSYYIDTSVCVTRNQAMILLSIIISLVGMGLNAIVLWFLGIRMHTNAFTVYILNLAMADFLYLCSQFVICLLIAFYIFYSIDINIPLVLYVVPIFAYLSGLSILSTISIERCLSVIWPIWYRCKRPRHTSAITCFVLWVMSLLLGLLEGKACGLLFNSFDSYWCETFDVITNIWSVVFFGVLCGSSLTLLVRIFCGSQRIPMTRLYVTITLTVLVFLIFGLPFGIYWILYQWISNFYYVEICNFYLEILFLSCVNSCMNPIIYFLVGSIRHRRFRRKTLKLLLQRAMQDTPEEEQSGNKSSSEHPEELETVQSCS
Method: In initial screens, HEK293 cells (not tested for Mycoplasma but rapidly dividing) were transiently transfected with gene constructs including a C-terminal FLAG tag, and plated on 100 μg/ml poly-D-lysine coated glass cover slips six hours after transfection. […] Later experiments utilized cell lines stably expressing receptors along with transient or stable expression of the promiscuous G protein Gα15. […] Unless otherwise specified, drugs were perfused into the chamber for 45 to 60 seconds and responses were monitored at 5-second intervals for an additional 60-90 seconds.
HEK293 cells stably expressing Galpha15 and either MrgprB2 or MrgprX2 were plated at 4×10^4 cells per well in 96-well plates and incubated overnight. […] Cells were incubated at 37° C. for 60 minutes, and allowed to recover for 15 minutes at room temperature before imaging in a Flexstation 3 (Molecular Devices). Wells were imaged according to manufacturer's specifications for 120 seconds, with 50 μl of test substances at 3× concentration added 30 seconds after imaging began. Responses were determined by subtracting the minimum signal from the maximum signal. Substances were tested in duplicate wells, the signals were averaged, and EC50s were determined for each trial by normalizing to the peak response to the substance in that trial.

LAD2 human mast cells = assay: LAD2 degranulation assay (β-hexosaminidase release), with MrgprX2 siRNA knockdown; assay type: cell-based; settings: for β-hexosaminidase release in MrgprX2 siRNA vs control siRNA cells: compound 48/80 0.1, mastoparan 5, icatibant 10, atracurium 25, ciprofloxacin 75 μg/ml
Method: LAD2 cells were sensitized for 20 hours with 0.5 μg/ml biotin-conjugated human IgE (Abbiotec). Cells were washed, resuspended in Hepes buffer (10 mM HEPES, 137 mM NaCl, 2.7 mM KCl, 0.38 mM Na2HPO4.7H2O, 5.6 mM glucose, 1.8 mM CaCl2.H2O, 1.3 mM MgSO4.7H2O, 0.4% BSA, pH 7.4) at 0.025×10^6 per well, and then stimulated with 0.1 μg/ml streptavidin (Life Technologies) or other agonists at the indicated concentrations for 30 minutes at 37° C./5% CO2. The β-hexosaminidase released into the supernatants and in cell lysates was quantified by hydrolysis of p-nitrophenyl N-acetyl-β-D-glucosamide (Sigma-Aldrich) in 0.1 M sodium citrate buffer (pH 4.5) for 90 minutes at 37° C. The percentage of β-hexosaminidase release was calculated as a percent of total content.
LAD2 cells were washed with medium, suspended at 0.5×10^6 cells per well, and transfected with 100 nm MrgprX2 siRNA and control siRNA in antibiotic-free StemPro medium using Lipofectamine 3000 (Life Technologies) according to the manufacturer's instruction at 37° C./5% CO2. At 48 hours, knockdown was confirmed by reverse-transcriptase PCR, and the cells were used for degranulation assays.

WT and MrgprB2^MUT mice = assay: Hindpaw swelling and Evans Blue extravasation; assay type: in vivo, mouse
Method: Adult male mice up to 8 months of age were anesthetized with an i.p. injection of 50 mg/kg pentobarbital (Sigma). 15 minutes after induction of anesthesia, mice were injected i.v. with 50 μl of 12.5 mg/ml Evans Blue (Sigma) in saline. 5 minutes later, 5 μl of the test substance (or 7 μl of anti-IgE) was administered by intraplantar injection in one paw and saline was administered in the other paw. Paw thickness was measured by calipers immediately after injection. 15 minutes later (30 minutes after anti-IgE), paw thickness was measured again and mice were sacrificed by decapitation. Paw tissue was collected, dried for 24 hours at 50° C., and weighed. Evans Blue was extracted by a 24 hour incubation in formamide at 50° C., and the O.D. was read at 620 nm using a spectrophotometer. For studies using ketotifen, mice were injected i.p. with 25 μl of a 10 mg/ml solution of ketotifen at the same time as pentobarbital.

peritoneal mast cells = assay: Mouse peritoneal mast cell histamine release assay; assay type: cell-based; settings: WT vs MrgprB2^MUT peritoneal mast cells
Method: Mast cells were purified as with the calcium imaging assay and allowed to recover for 2 hours in DMEM with 10% FBS and 25 ng/ml mouse stem cell factor in a 37° C. incubator with 5% CO2. Cells were then spun down, resuspended in CIB, counted, and plated at 300 cells/well in 75 μl CIB in 96-well plates coated with 20 μg/ml fibronectin (Sigma). They were allowed to adhere to the substrate for 45 minutes at 37° C. in atmospheric conditions (i.e. CO2 levels were not adjusted) before assay. […] After 5 minutes, 40 μl of supernatant was aspirated, diluted with 40 μl CIB and frozen at −80° C. until histamine levels were determined. Anti-IgE treatment was similar, except that cells were incubated for 30 minutes at 37° C. after anti-IgE was added before aspiration of supernatant. Histamine content was determined by using an HTRF histamine assay kit (Cisbio Assays) according to the manufacturer's instructions.

[2] = Drug preparation and storage observations; assay type: physicochemical
Method: Propranolol also was prepared fresh on the day of the experiment to minimize the chances of a loss in potency. All fluoroquinolones except levofloxacin were dissolved into CIB adjusted to pH 3.5. All other drugs were prepared as 100×-1000× aliquots and stored at −80° C. before thawing at 4° C. and diluting into calcium imaging buffer or saline.

insulin: Recombinant human insulin from Roche, negative control
activation / responsiveness of peritoneal mast cells, WT vs MrgprB2^MUT [1]: had no effect; also recorded: not significant

BAMS-22: MrgprX1 and MrgprC11 agonist Bovine Adrenal Medulla derived peptide, fragment 8-22 (VGRPEWWMDYQKRYG)
percentages of peritoneal mast cells responding, differences ([1]; 500 nM, Fluo-4, p=0.39): not significant

CCN(CC)CCCC(C)Nc1ccnc2cc(Cl)ccc12 (stereo not shown) [chloroquine]
response of MrgprB2-HEK cells ([Ca2+]i) (MrgprB2): no response

NC(N)=NCCC[C@@H](N)C(=O)N[C@@H](CCCN=C(N)N)C(=O)N1CCC[C@H]1C(=O)N1C[C@H](O)C[C@H]1C(=O)NCC(=O)N[C@@H](Cc1cccs1)C(=O)N[C@@H](CO)C(=O)N1Cc2ccccc2C[C@@H]1C(=O)N1[C@H](C(=O)N[C@@H](CCCN=C(N)N)C(=O)O)C[C@@H]2CCCC[C@@H]21 [icatibant]
β-hexosaminidase release in MrgprX2 siRNA vs control siRNA cells (LAD2 human mast cells): significantly reduced | hindpaw extravasation and swelling in WT mice but not in MrgprB2^MUT mice (WT and MrgprB2^MUT mice; icatibant at the clinical concentration, intraplantar 10 mg/ml, 5 μl, 15 minutes): induced extensive extravasation and swelling | increase in paw thickness, without ketotifen (WT and MrgprB2^MUT mice; icatibant intraplantar, no ketotifen pretreatment, n=4): 40.7±2.1% | histamine release from WT peritoneal mast cells (MrgprB2^MUT released substantially less) (peritoneal mast cells): induced histamine release

CSCC[C@H](NC(=O)[C@H](CC(C)C)NC(=O)CNC(=O)[C@H](Cc1ccccc1)NC(=O)[C@H](Cc1ccccc1)NC(=O)[C@H](CCC(N)=O)NC(=O)[C@H](CCC(N)=O)NC(=O)[C@@H]1CCCN1C(=O)[C@H](CCCCN)NC(=O)[C@@H]1CCCN1C(=O)[C@@H](N)CCCNC(=N)N)C(N)=O [Substance P]
response of MrgprB2-HEK cells ([Ca2+]i) (MrgprB2): responded

cortistatin
activation / responsiveness of peritoneal mast cells, WT vs MrgprB2^MUT [1]: strongly activated WT but not MrgprB2^MUT mast cells

CC(C)C[C@H](NC(=O)[C@H](C)NC(=O)[C@H](Cc1c[nH]c2ccccc12)NC(=O)[C@H](CCCCN)NC(=O)[C@H](CC(N)=O)NC(=O)[C@H](Cc1c[nH]c2ccccc12)NC(=O)[C@H](CCCCN)NC(=O)[C@H](CCCCN)NC(=O)[C@H](CCCNC(=N)N)NC(=O)[C@@H](N)Cc1ccccc1)C(=O)N[C@@H](CO)C(=O)N[C@@H](CCCNC(=N)N)C(N)=O [PAMP (9-20)]
response of MrgprB2-HEK cells ([Ca2+]i) (MrgprB2): responded | activation / responsiveness of peritoneal mast cells, WT vs MrgprB2^MUT [1]: strongly activated WT but not MrgprB2^MUT mast cells

CC[C@H](C)[C@H](N)C(=O)N[C@@H](CC(N)=O)C(=O)N[C@@H](CC(C)C)C(=O)N[C@@H](CCCCN)C(=O)N[C@@H](C)C(=O)N[C@@H](CC(C)C)C(=O)N[C@@H](C)C(=O)N[C@@H](C)C(=O)N[C@@H](CC(C)C)C(=O)N[C@@H](C)C(=O)N[C@@H](CCCCN)C(=O)N[C@@H](CCCCN)C(=O)N[C@H](C(=O)N[C@@H](CC(C)C)C(N)=O)[C@@H](C)CC [mastoparan]
β-hexosaminidase release in MrgprX2 siRNA vs control siRNA cells (LAD2 human mast cells): significantly reduced | histamine release from WT peritoneal mast cells (MrgprB2^MUT released substantially less) (peritoneal mast cells): induced histamine release

CN1CCC(=C2c3ccccc3CC(=O)c3sccc32)CC1 [ketotifen]
increase in paw thickness, with ketotifen (WT and MrgprB2^MUT mice; icatibant intraplantar after ketotifen i.p. pretreatment (25 μl of 10 mg/ml), n=4): 3.1±0.6%

COc1cc2c(cc1OC)[C@@H](Cc1cc(OC)c(OC)c(OC)c1)[N+](C)(CCCOC(=O)CC/C=C/CCC(=O)OCCC[N+]1(C)CCc3cc(OC)c(OC)cc3[C@H]1Cc1cc(OC)c(OC)c(OC)c1)CC2 (stereo partly shown) [mivacurium]
stability of potency of solutions [2]: susceptible to oxidation and/or freeze-thaw effects

CC[C@H](C)[C@H](NC(=O)[C@H](CC(=O)O)NC(=O)[C@H](CC(C)C)NC(=O)[C@H](Cc1c[nH]cn1)NC(=O)[C@@H]1CSSC[C@H](N)C(=O)N[C@@H](CO)C(=O)N[C@H]2CSSC[C@H](NC(=O)[C@H](CCC(=O)O)NC(=O)[C@H](CCCCN)NC(=O)[C@H](CC(=O)O)NC(=O)[C@H](CCSC)NC(=O)[C@H](CC(C)C)NC(=O)[C@H](CO)NC(=O)[C@H](CO)NC2=O)C(=O)N[C@@H](C(C)C)C(=O)N[C@@H](Cc2ccc(O)cc2)C(=O)N[C@@H](Cc2ccccc2)C(=O)N1)C(=O)N[C@H](C(=O)N[C@@H](Cc1c[nH]c2ccccc12)C(=O)O)[C@@H](C)CC [endothelin]
activation / responsiveness of peritoneal mast cells, WT vs MrgprB2^MUT [1]: comparable | activation / responsiveness of peritoneal mast cells, WT vs MrgprB2^MUT ([1]; listed as Endothelin): not significantly different

COc1ccc(CC2c3cc(OC)c(OC)cc3CC[N+]2(C)CCC(=O)OCCCCCOC(=O)CC[N+]2(C)CCc3cc(OC)c(OC)cc3C2Cc2ccc(OC)c(OC)c2)cc1OC (stereo not shown) [atracurium]
stability of potency of solutions [2]: susceptible to oxidation and/or freeze-thaw effects | β-hexosaminidase release in MrgprX2 siRNA vs control siRNA cells (LAD2 human mast cells): significantly reduced | histamine release from WT peritoneal mast cells (MrgprB2^MUT released substantially less) (peritoneal mast cells): induced histamine release

COc1cc2c3cc1Oc1cc(ccc1O)C[C@@H]1c4c(cc(OC)c(O)c4Oc4ccc(cc4)C[C@@H]3N(C)CC2)CC[N+]1(C)C [tubocurarine]
stability of potency of solutions [2]: susceptible to oxidation and/or freeze-thaw effects

streptavidin: stimulus for biotin-conjugated human IgE sensitized LAD2 cells
β-hexosaminidase release (LAD2 human mast cells; 0.1 μg/ml streptavidin, biotin-conjugated human IgE sensitized LAD2 cells): 71.3±1.8 % release
